System in the first test: not given
Assay: not given
The settings on record: phase II trial; altered behavior, delusion, hallucinations, extreme emotions, excited motor activity, incoherent speech; cited from earlier work.
For the compound `CC(=O)N(C)C1(c2ccccc2)CCN(CCC[C@]2(c3ccc(Cl)c(Cl)c3)CCCN(C(=O)c3ccccc3)C2)CC1` [SR 142,801, Osanetant], the “activity on positive symptoms of schizophrenia” value is on record as “active”.

Still in this test, the particulars now being: phase II trial; depression, anhedonia, social isolation or memory and attention deficits; cited from earlier work.
Turning to `CC(=O)N(C)C1(c2ccccc2)CCN(CCC[C@]2(c3ccc(Cl)c(Cl)c3)CCCN(C(=O)c3ccccc3)C2)CC1` [SR 142,801, Osanetant], the “activity in the treatment of negative symptoms” value was “inactive”.

Another test concerns the target T1, recombinant human NK3 receptor (Homo sapiens, UniProt P29371).
T1 construct: expressed in transfected cells; host or cells: HEK293 cells (transient expression), membranes
T1 sequence (P29371 1-465): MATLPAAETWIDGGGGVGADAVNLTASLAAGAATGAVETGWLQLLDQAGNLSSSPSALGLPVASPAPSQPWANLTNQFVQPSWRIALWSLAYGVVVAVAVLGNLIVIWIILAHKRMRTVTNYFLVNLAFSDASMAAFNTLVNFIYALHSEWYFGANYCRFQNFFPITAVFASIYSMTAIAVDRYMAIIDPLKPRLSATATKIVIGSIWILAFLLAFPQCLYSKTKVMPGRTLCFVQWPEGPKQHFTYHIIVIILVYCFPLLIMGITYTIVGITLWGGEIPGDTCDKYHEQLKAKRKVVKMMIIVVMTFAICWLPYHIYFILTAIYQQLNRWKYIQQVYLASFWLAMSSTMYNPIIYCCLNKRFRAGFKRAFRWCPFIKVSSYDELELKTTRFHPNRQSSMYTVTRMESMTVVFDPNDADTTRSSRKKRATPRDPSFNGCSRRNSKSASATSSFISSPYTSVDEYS
Description: [3H]SR142801 competition binding assay, hNK3 receptor binding. The settings on record: [3H]SR142801 displacement; membranes from HEK293 cells transiently expressing recombinant human NK3 receptor; Ki by Cheng-Prussoff from IC50. The method, then:
The compounds were investigated in accordance with the tests given hereinafter. [^3H]SR142801 competition binding assay hNK3 receptor binding experiment were performed using [^3H]SR142801 (Catalog No. TRK1035, specific activity: 74.0 Ci/mmol, Amersham, GE Healthcare UK limited, Buckinghamshire, UK) and membrane isolated from HEK293 cells transiently expressing recombinant human NK3 receptor. After thawing, the membrane homogenates were centrifuged at 48,000×g for 10 min at 4° C., the pellets were resuspended in the 50 mM Tris-HCl, 4 mM MnCl2, 1 μM phosphoramidon, 0.1% BSA binding buffer at pH 7.4 to a final assay concentration of 5 μg protein/well. For inhibition experiments, membranes were incubated with [^3H]SR142801 at a concentration equal to KD value of radioligand and 10 concentrations of the inhibitory compound (0.0003-10 μM) (in a total reaction volume of 500 μl) for 75 min at room temperature (RT). At the end of the incubation, membranes were filtered onto unitfilter (96-well white microplate with bonded GF/C filter preincubated 1 h in 0.3% PEI+0.3% BSA, Packard BioScience, Meriden, Conn.) with a Filtermate 196 harvester (Packard BioScience) and washed 4 times with ice-cold 50 mM Tris-HCl, pH 7.4 buffer. Nonspecific binding was measured in the presence of 10 μM SB222200 for both radioligands. The radioactivity on the filter was counted (5 min) on a Packard Top-count microplate scintillation counter with quenching correction after addition of 45 μl of microscint 40 (Can berra Packard S. A., Zürich, Switzerland) and shaking for 1 h. Inhibition curves were fitted according to the Hill equation: y=100/(1+(x/IC50)^nH), where nH=slope factor using Excel-fit 4 software (Microsoft). IC50 values were derived from the inhibition curve and the affinity constant (Ki) values were calculated using the Cheng-Prussoff equation Ki=IC50/(1+[L]/KD) where [L] is the concentration of radioligand and KD is its dissociation constant at the receptor, derived from the saturation isotherm. All experiments were performed in duplicate and the mean±standard error (SEM) of the individual Ki values was calculated.
For `C[C@H](Oc1ccc(F)c(F)c1)[C@H]1CCN(C(=O)C2CCN(c3ccc(C#N)cn3)CC2)C[C@@H]1c1ccc(Cl)cc1` [Example 54, 4-{(3S,4S)-3-(4-Chloro-phenyl)-4-[(S)-1-(3,4-difluoro-phenoxy)-ethyl]-piperidine-1-carbonyl}-3,4,5,6-tetrahydro-2H-[1,2′]bipyridinyl-5′-carbonitrile], the Ki turned out to be 1.7 nM.

As to `C[C@H](Oc1ccc(Cl)cc1)[C@H]1CCN(C(=O)C2CCN(c3ccc(C#N)cn3)CC2)C[C@@H]1c1ccc(Cl)cc1` [Example 55, 4-[(3S,4S)-4-[(S)-1-(4-Chloro-phenoxy)-ethyl]-3-(4-chloro-phenyl)-piperidine-1-carbonyl]-3,4,5,6-tetrahydro-2H-[1,2′]bipyridinyl-5′-carbonitrile], the Ki was determined as 0.9 nM.

For the compound `C[C@H](Oc1cccc(F)c1)[C@H]1CCN(C(=O)C2CCN(c3ccc(C#N)cn3)CC2)C[C@@H]1c1ccc(Cl)cc1` [Example 56, 4-{(3S,4S)-3-(4-Chloro-phenyl)-4-[(S)-1-(3-fluoro-phenoxy)-ethyl]-piperidine-1-carbonyl}-3,4,5,6-tetrahydro-2H-[1,2′]bipyridinyl-5′-carbonitrile], the inhibition constant Ki stood at 3.8 nM.

`Cc1ccc(O[C@@H](C)[C@H]2CCN(C(=O)C3CCN(c4ccc(C#N)cn4)CC3)C[C@@H]2c2ccc(Cl)cc2)cc1` [Example 57, 4-[(3S,4S)-3-(4-Chloro-phenyl)-4-((S)-1-p-tolyloxy-ethyl)-piperidine-1-carbonyl]-3,4,5,6-tetrahydro-2H-[1,2′]bipyridinyl-5′-carbonitrile]: the Ki is 1.4 nM.

For `Cc1ccc(O[C@@H](C)[C@H]2CCN(C(=O)C3CCN(c4ccc(C#N)cn4)CC3)C[C@@H]2c2ccc(Cl)cc2)nc1` [Example 58, 4-{(3S,4S)-3-(4-Chloro-phenyl)-4-[(S)-1-(5-methyl-pyridin-2-yloxy)-ethyl]piperidine-1-carbonyl}-3,4,5,6-tetrahydro-2H-[1,2′]bipyridinyl-5′-carbonitrile], the Ki came to 2 nM.

Consider `C[C@H](Oc1ncc(F)cn1)[C@H]1CCN(C(=O)C2CCN(c3ccc(C#N)cn3)CC2)C[C@@H]1c1ccc(Cl)cc1` [Example 61, 4-{(3S,4S)-3-(4-Chloro-phenyl)-4-[(S)-1-(5-fluoro-pyrimidin-2-yloxy)-ethyl]-piperidine-1-carbonyl}-3,4,5,6-tetrahydro-2H-[1,2′]bipyridinyl-5′-carbonitrile], for which the Ki amounted to 1.5 nM.

On to `C[C@H](Oc1ccc(Cl)cn1)[C@H]1CCN(C(=O)C2CCN(c3ccc(C#N)cn3)CC2)C[C@@H]1c1ccc(F)c(F)c1` [Example 62, 4-[(3S,4S)-4-[(S)-1-(5-Chloro-pyridin-2-yloxy)-ethyl]-3-(3,4-difluoro-phenyl)-piperidine-1-carbonyl]-3,4,5,6-tetrahydro-2H-[1,2′]bipyridinyl-5′-carbonitrile], for which the inhibition constant (Ki) is 0.2 nM.

Turning to `C[C@H](Oc1ccc(Cl)cn1)[C@H]1CCN(C(=O)C2CCN(C(=O)C3(C)CC3)CC2)C[C@@H]1c1ccc(F)c(F)c1` [Example 63, {4-[(3S,4S)-4-[(S)-1-(5-Chloro-pyridin-2-yloxy)-ethyl]-3-(3,4-difluoro-phenyl)-piperidine-1-carbonyl]piperidin-1-yl}-(1-methyl-cyclopropyl)-methanone], the Ki was found to be 3.5 nM.

Consider `C[C@H](Oc1ccc(C#N)cn1)[C@H]1CCN(C(=O)C2CCN(c3ccc(C#N)cn3)CC2)C[C@@H]1c1ccc(F)c(F)c1` [Example 65, 4-[(3S,4S)-4-[(S)-1-(5-Cyano-pyridin-2-yloxy)-ethyl]-3-(3,4-difluoro-phenyl)-piperidine-1-carbonyl]-3,4,5,6-tetrahydro-2H-[1,2′]bipyridinyl-5′-carbonitrile], for which the Ki is 0.4 nM.

Take `C[C@H](Oc1ccc(C#N)cn1)[C@H]1CCN(C(=O)C2CCN(C(=O)C3(C)CC3)CC2)C[C@@H]1c1ccc(F)c(F)c1` [Example 66, 6-((S)-1-{(3S,4S)-3-(3,4-Difluoro-phenyl)-1-[1-(1-methyl-cyclopropanecarbonyl)-piperidine-4-carbonyl]-piperidin-4-yl}-ethoxy)-nicotinonitrile]: the Ki was found to be 4.6 nM.

The term Ki denotes a measure of affinity in units of concentration, obtained from inhibition or displacement.

Source of the values: patent US8324248B2, “Piperidine derivatives as NK3 receptor antagonists” (Hoffmann-La Roche Inc., priority 2009, dated 2012).
